Literature values in patent publication US9433643B2, “Microbicidal composition comprising hydrogen peroxide and aminocarboxylic acids” (Truox, Inc., priority 2013, dated 2016).

How the values were obtained:
[1] = reported
[2] = at 25° C., reported

Row | Compound | isoelectric point (pI) [2] | further results
1 | O=C(O)CN(CCN(CC(=O)O)CC(=O)O)CC(=O)O [EDTA, ethylenediaminetetraacetic acid] |  | pK1 ([1]; carboxylic acid groups): 2.00; pK2 ([1]; carboxylic acid groups): 2.65; pK3 ([1]; carboxylic acid groups): 6.18; pK4 ([1]; carboxylic acid groups): 10.30
2 | N[C@@H](CC(=O)O)C(=O)O [aspartic acid] | 2.98 | 
3 | CC(=O)OO [Peroxyacetic acid] |  | pKa [1]: 4.76
4 | C[C@H](N)C(=O)O [alanine] | 6.11 | 
5 | N[C@@H](CCC(=O)O)C(=O)O [glutamic acid] | 3.08 | 
6 | N=C(N)NCCC[C@H](N)C(=O)O [arginine] | 10.76 | 
7 | NCC(=O)O [glycine, aminoethanoic acid] | 6.06 | 
